Test results taken from US20110009379A1, “INDOLINONE COMPOUND” (ASTELLAS PHARMA INC., priority 2008, published 2011).
pEC50: −log10 of the molar value.

Target: T1, human TRPA1 (Homo sapiens, UniProt O75762, K186N/R3C/R58T)
T1 construct: expressed in transfected cells; pcDNA3.1(+) vector)
Experiment: Measurement of TRPA1 activation activity (intracellular calcium, FLIPR, HEK293 cells stably expressing human TRPA1)
Assay type: cell-based
Conditions: change of intracellular calcium concentration
Procedure, shortened: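 HEK293 cells stably expressing cloned human TRPA1 (G418-selected) were loaded with Fluo4-AM for 1 h in HBSS/HEPES pH 7.4 buffer containing probenecid. Intracellular calcium change after compound addition was recorded by FLIPR. EC50 values were calculated from these responses.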

T1 sequence (O75762 whole entry R3C/R58T/K186N): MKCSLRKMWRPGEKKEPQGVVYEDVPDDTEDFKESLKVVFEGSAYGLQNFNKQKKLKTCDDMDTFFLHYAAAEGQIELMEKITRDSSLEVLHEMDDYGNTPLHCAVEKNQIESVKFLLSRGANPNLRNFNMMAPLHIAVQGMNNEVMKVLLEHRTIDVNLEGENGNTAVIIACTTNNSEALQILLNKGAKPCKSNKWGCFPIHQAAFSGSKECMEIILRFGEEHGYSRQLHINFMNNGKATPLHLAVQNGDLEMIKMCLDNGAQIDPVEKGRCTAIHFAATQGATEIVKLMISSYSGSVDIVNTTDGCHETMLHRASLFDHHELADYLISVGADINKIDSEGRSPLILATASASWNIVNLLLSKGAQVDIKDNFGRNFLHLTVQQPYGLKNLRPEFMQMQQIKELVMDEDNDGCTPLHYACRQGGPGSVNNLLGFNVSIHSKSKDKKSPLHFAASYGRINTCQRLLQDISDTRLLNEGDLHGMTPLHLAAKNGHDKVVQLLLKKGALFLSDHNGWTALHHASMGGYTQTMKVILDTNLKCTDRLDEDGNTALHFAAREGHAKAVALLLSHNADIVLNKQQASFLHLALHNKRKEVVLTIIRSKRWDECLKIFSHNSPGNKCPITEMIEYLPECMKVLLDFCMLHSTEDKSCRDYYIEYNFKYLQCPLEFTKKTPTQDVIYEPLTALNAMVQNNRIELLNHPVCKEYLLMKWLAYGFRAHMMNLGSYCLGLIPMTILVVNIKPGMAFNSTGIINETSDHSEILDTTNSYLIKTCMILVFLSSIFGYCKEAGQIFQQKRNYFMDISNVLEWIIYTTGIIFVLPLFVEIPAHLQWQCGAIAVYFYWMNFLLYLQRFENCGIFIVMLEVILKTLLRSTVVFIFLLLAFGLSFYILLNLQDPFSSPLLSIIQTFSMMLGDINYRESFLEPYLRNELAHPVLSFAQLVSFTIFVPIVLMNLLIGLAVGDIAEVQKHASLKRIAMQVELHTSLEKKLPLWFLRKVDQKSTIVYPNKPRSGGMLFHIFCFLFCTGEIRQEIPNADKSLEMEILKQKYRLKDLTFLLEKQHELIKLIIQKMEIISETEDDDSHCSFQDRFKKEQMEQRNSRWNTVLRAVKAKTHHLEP

pEC50: 6.29
Structure (SMILES): O=C(O)/C=C1/C(=O)N(CC2CCCC2)c2c(F)cccc21 [Example 28, (2E)-[1-(cyclopentylmethyl)-7-fluoro-2-oxo-1,2-dihydro-3H-indol-3-ylidene]acetic acid]
